In patent US6936585B2, “Corticotropin releasing factor 2 receptor agonists” (priority 2002, dated 2005):
Peptide text beside a SMILES is read from it.

Tests used:
[1] = target: T1, CRF2R (Homo sapiens, UniProt Q13324); assay: CRF2R agonist activation (EC50 / Emax), called comparative CRF binding; type: cell-based; settings: for EC50: read-out: CRF2R EC50; for Emax: read-out: CRF2R Emax
T1 sequence (Q13324 1-411): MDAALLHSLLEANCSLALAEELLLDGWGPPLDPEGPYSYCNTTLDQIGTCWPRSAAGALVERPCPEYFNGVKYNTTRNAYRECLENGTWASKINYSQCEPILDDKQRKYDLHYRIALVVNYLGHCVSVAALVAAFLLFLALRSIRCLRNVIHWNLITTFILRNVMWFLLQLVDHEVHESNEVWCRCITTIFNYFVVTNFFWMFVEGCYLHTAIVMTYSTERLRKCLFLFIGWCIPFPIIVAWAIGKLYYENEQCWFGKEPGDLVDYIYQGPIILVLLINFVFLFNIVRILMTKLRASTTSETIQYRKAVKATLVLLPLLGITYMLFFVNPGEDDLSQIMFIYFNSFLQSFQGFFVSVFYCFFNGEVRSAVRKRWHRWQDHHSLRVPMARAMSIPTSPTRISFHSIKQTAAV
Excerpt: (§1) The pharmacological activity and selectivity of the peptides of present invention can be determined using published test procedures. See, e.g, U.S. patent application Ser. No. 09/799,978 (now issued U.S. Pat. No. 6,670,140). Because CRF2R and CRF1R are homologous proteins, it is expected that a certain proportion of agonists for CRF2R will also function as agonists of CRF1R. As discussed above, activation of CRF1R induces activation of the HPA axis since increased corticosteroid production leads to skeletal muscle atrophy. In most cases in which an increase in muscle mass or function is desired, it is not desirable to activate the HPA axis.
(§2) Cell-based assays include the steps of contacting cells which express CRF1R or CRF2R with a peptide of the present invention or control and measuring activation of the CRFR by measuring the expression or activity of components of the CRFR signal transduction pathways.
(§3) For example, after contact with a peptide of the present invention, lysates of the cells can be prepared and assayed for induction of cAMP. cAMP is induced in response to Gαs activation. Because Gαs is activated by receptors other than CRFR and because a test peptide may be exerting its effect through CRFRs or by another mechanism, two control comparisons are relevant for determining whether the peptide increases levels of cAMP via activation of a CRFR. One control compares the cAMP level of cells contacted with the peptide and the cAMP level of cells contacted with a control compound (i.e., the vehicle in which the peptide is dissolved).
(§4) In one example, cAMP induction is measured with the use of DNA constructs containing the cAMP responsive element linked to any of a variety of reporter genes can be introduced into cells expressing CRFRs. Such reporter genes include, but are not limited to, chloramphenicol acetyltransferase (CAT), luciferase, glucuronide synthetase, growth hormone, fluorescent proteins (e.g., Green Fluorescent Protein), or alkaline phosphatase. Following exposure of the cells to the peptide, the level of reporter gene expression can be quantitated to determine the peptide's ability to increase cAMP levels and thus determine the peptide's ability to activate the CRFR.
(§5) In addition to using cells expressing full length CRFRs, cells can be engineered which express CRFRs containing the ligand binding domain of the receptor coupled to, or physically modified to contain, reporter elements or to interact with signaling proteins. For example, a wild type CRFR or CRFR fragment can be fused to a G-protein resulting in activation of the fused G-protein upon agonist binding to the CRFR portion of the fusion protein. […] In addition, alternative pathways for induction of the CRE reporter could be eliminated to reduce basal levels.

[2] = target: T2, CRF1R (Homo sapiens, UniProt P34998); assay: CRF1R agonist activation (EC50 / Emax), called comparative CRF binding; type: cell-based; settings: for EC50: read-out: CRF1R EC50; for Emax: read-out: CRF1R Emax
T2 sequence (P34998 24-415): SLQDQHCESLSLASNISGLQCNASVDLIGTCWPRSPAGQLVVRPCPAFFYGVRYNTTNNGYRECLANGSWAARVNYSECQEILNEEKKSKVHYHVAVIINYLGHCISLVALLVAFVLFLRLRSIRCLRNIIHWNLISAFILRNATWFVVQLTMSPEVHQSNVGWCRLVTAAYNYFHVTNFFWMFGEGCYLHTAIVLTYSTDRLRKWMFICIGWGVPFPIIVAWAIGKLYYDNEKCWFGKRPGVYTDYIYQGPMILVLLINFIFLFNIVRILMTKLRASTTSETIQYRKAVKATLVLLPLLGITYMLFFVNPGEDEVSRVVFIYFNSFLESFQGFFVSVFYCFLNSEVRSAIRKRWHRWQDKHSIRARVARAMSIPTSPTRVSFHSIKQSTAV
Excerpt: as §1, §2, §3, §4, §5

Structure (SMILES) | EC50 [1] [nM] | Emax [1] [%] | EC50 [2] [nM] | Emax [2] [%]
CC[C@H](C)[C@H](NC(=O)[C@H](C)NC(=O)[C@H](CC(N)=O)NC(=O)[C@H](CCC(N)=O)NC(=O)[C@H](CCC(=O)O)NC(=O)[C@H](C)NC(=O)[C@H](CCCNC(=N)N)NC(=O)[C@H](CCC(=O)O)NC(=O)[C@H](CCCNC(=N)N)NC(=O)[C@H](CCC(N)=O)NC(=O)[C@H](CO)NC(=O)[C@H](CCC(N)=O)NC(=O)[C@@H](NC(=O)[C@H](CCCNC(=N)N)NC(=O)[C@H](C)NC(=O)[C@H](CC(C)C)NC(=O)[C@H](CCC(=O)O)NC(=O)[C@H](CC(C)C)NC(=O)[C@H](CC(C)C)NC(=O)[C@@H](NC(=O)[C@H](CCCNC(=N)N)NC(=O)[C@H](CC(C)C)NC(=O)[C@H](CC(C)C)NC(=O)[C@H](CC(C)C)NC(=O)[C@H](Cc1ccccc1)NC(=O)[C@@H]1CCCN1C(=O)[C@H](CC(C)C)NC(=O)[C@H](CC(=O)O)NC(=O)[C@@H](NC(=O)[C@H](CO)NC(=O)[C@H](CC(C)C)NC(=O)[C@H](CO)NC(=O)[C@@H]1CCCN1C(=O)[C@H](CC(N)=O)NC(=O)[C@@H](N)CC(=O)O)[C@@H](C)CC)[C@@H](C)O)[C@@H](C)O)C(=O)N[C@H](C(=O)N[C@@H](Cc1ccccc1)C(=O)N[C@@H](C)C(=O)N[C@@H](CO)C(=O)N[C@H](C(N)=O)C(C)C)[C@@H](C)CC [compound 180] (H-DNPSLSIDLPFLLLRTLLELARTQSQRERAEQNAIIFASV-NH2; N-terminus assumed) | 3.14 | 95.7 | 125 | 99.3
CC[C@H](C)[C@H](N)C(=O)N[C@H](C(=O)N[C@@H](CC(C)C)C(=O)N[C@@H](CO)C(=O)N[C@@H](CC(C)C)C(=O)N[C@@H](CC(=O)O)C(=O)N[C@H](C(=O)N1CCC[C@H]1C(=O)N[C@H](C(=O)NCC(=O)N[C@@H](CC(C)C)C(=O)N[C@@H](CC(C)C)C(=O)N[C@@H](CCC(N)=O)C(=O)N[C@H](C(=O)N[C@@H](CC(C)C)C(=O)N[C@@H](CC(C)C)C(=O)N[C@@H](CCC(=O)O)C(=O)N[C@@H](CCC(N)=O)C(=O)N[C@@H](CCC(=O)O)C(=O)N[C@@H](CCCCN)C(=O)N[C@@H](CCC(N)=O)C(=O)N[C@@H](CCC(=O)O)C(=O)N[C@@H](C)C(=O)N[C@@H](C)C(=O)N[C@@H](CCCNC(=N)N)C(=O)N[C@@H](CCC(=O)O)C(=O)N[C@@H](CCC(N)=O)C(=O)N[C@@H](C)C(=O)N[C@H](C(=O)N[C@H](C(=O)N[C@@H](CC(N)=O)C(=O)N[C@@H](C)C(=O)N[C@@H](CCCNC(=N)N)C(=O)N[C@H](C(=O)N[C@@H](CC(C)C)C(=O)N[C@@H](C)C(=O)N[C@@H](CCCNC(=N)N)C(=O)N[C@H](C(N)=O)C(C)C)[C@@H](C)CC)[C@@H](C)O)[C@@H](C)O)[C@@H](C)CC)[C@@H](C)CC)C(C)C)C(C)C [compound 125] (H-IVLSLDVPIGLLQILLEQEKQEAAREQATTNARILARV-NH2; N-terminus assumed) |  | 99 |  | 9
CC[C@H](C)[C@H](N)C(=O)N[C@H](C(=O)N[C@@H](CC(C)C)C(=O)N[C@@H](CO)C(=O)N[C@@H](CC(C)C)C(=O)N[C@@H](CC(=O)O)C(=O)N[C@H](C(=O)N1CCC[C@H]1C(=O)N[C@H](C(=O)NCC(=O)N[C@@H](CC(C)C)C(=O)N[C@@H](CC(C)C)C(=O)N[C@@H](CCC(N)=O)C(=O)N[C@H](C(=O)N[C@@H](CC(C)C)C(=O)N[C@@H](CC(C)C)C(=O)N[C@@H](CCC(=O)O)C(=O)N[C@@H](CCC(N)=O)C(=O)N[C@@H](C)C(=O)N[C@@H](CCCCN)C(=O)N[C@@H](C)C(=O)N[C@@H](CC(=O)O)C(=O)N[C@@H](C)C(=O)N[C@@H](C)C(=O)N[C@@H](CCCNC(=N)N)C(=O)N[C@@H](CCC(=O)O)C(=O)N[C@@H](CCC(N)=O)C(=O)N[C@@H](C)C(=O)N[C@H](C(=O)N[C@H](C(=O)N[C@@H](CC(N)=O)C(=O)N[C@@H](C)C(=O)N[C@@H](CCCNC(=N)N)C(=O)N[C@H](C(=O)N[C@@H](CC(C)C)C(=O)N[C@@H](C)C(=O)N[C@@H](CCCNC(=N)N)C(=O)N[C@H](C(N)=O)C(C)C)[C@@H](C)CC)[C@@H](C)O)[C@@H](C)O)[C@@H](C)CC)[C@@H](C)CC)C(C)C)C(C)C [compound 131] (H-IVLSLDVPIGLLQILLEQAKADAAREQATTNARILARV-NH2; N-terminus assumed) | 5.25 | 91 | > 100 | 8
CC[C@H](C)[C@H](NC(=O)[C@H](C)NC(=O)[C@H](CC(N)=O)NC(=O)[C@H](CCC(N)=O)NC(=O)[C@H](CCC(=O)O)NC(=O)[C@H](C)NC(=O)[C@H](CCCNC(=N)N)NC(=O)[C@H](CCC(=O)O)NC(=O)[C@H](CCCNC(=N)N)NC(=O)[C@H](CCC(N)=O)NC(=O)[C@H](CO)NC(=O)[C@H](CCC(N)=O)NC(=O)[C@@H](NC(=O)[C@H](CCCNC(=N)N)NC(=O)[C@H](C)NC(=O)[C@H](CC(C)C)NC(=O)[C@H](CCC(=O)O)NC(=O)[C@H](CC(C)C)NC(=O)[C@H](CC(C)C)NC(=O)[C@@H](NC(=O)[C@H](CCCNC(=N)N)NC(=O)[C@H](CC(C)C)NC(=O)[C@H](CC(C)C)NC(=O)[C@H](Cc1c[nH]cn1)NC(=O)[C@H](Cc1ccccc1)NC(=O)[C@@H]1CCCN1C(=O)[C@H](CC(C)C)NC(=O)[C@H](CC(=O)O)NC(=O)[C@@H](NC(=O)[C@H](CO)NC(=O)[C@H](CC(C)C)NC(=O)[C@H](CO)NC(=O)[C@@H]1CCCN1C(=O)[C@H](CC(N)=O)NC(=O)[C@@H](N)CC(=O)O)[C@@H](C)CC)[C@@H](C)O)[C@@H](C)O)C(=O)N[C@H](C(=O)N[C@@H](Cc1ccccc1)C(=O)N[C@@H](C)C(=O)N[C@@H](CO)C(=O)N[C@H](C(N)=O)C(C)C)[C@@H](C)CC [compound 185] (H-DNPSLSIDLPFHLLRTLLELARTQSQRERAEQNAIIFASV-NH2; N-terminus assumed) | 8.98 | 100 | 358 | 95.8
CC[C@H](C)[C@H](NC(=O)[C@H](C)NC(=O)[C@H](CC(N)=O)NC(=O)[C@H](CCC(N)=O)NC(=O)[C@H](CCC(=O)O)NC(=O)[C@H](C)NC(=O)[C@H](CCCNC(=N)N)NC(=O)[C@H](CCC(=O)O)NC(=O)[C@H](CCCNC(=N)N)NC(=O)[C@H](CCC(N)=O)NC(=O)[C@H](CO)NC(=O)[C@H](CCC(N)=O)NC(=O)[C@@H](NC(=O)[C@H](CCCCN)NC(=O)[C@H](CCC(=O)O)NC(=O)[C@H](CC(C)C)NC(=O)[C@H](CCC(=O)O)NC(=O)[C@H](CC(C)C)NC(=O)[C@H](CC(C)C)NC(=O)[C@@H](NC(=O)[C@H](CCCNC(=N)N)NC(=O)[C@H](CC(C)C)NC(=O)[C@H](CC(C)C)NC(=O)[C@H](CC(C)C)NC(=O)[C@H](CC(C)C)NC(=O)[C@@H]1CCCN1C(=O)[C@H](CC(C)C)NC(=O)[C@H](CC(=O)O)NC(=O)[C@@H](NC(=O)[C@H](CO)NC(=O)[C@H](CC(C)C)NC(=O)[C@H](CO)NC(=O)[C@@H]1CCCN1)[C@@H](C)CC)[C@@H](C)O)[C@@H](C)O)C(=O)N[C@H](C(=O)N[C@@H](Cc1ccccc1)C(=O)N[C@@H](C)C(=O)N[C@@H](CO)C(=O)N[C@H](C(N)=O)C(C)C)[C@@H](C)CC [compound 344] (H-PSLSIDLPLLLLRTLLELEKTQSQRERAEQNAIIFASV-NH2) |  | 94.5 |  | 77.7
